Results: patent US8969312B2, “Low side effect pharmaceutical composition containing antituberculosis drugs” (priority 2011, dated 2015)

Tests used:
[1] = biological target: human liver microsomal cytochrome P450 2E1 (CYP2E1) (Homo sapiens, UniProt P05181); assay: Human liver microsomal CYP2E1, chlorzoxazone 6-hydroxylation;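 note: chlorzoxazone added as substrate, 6-hydroxychlorzoxazone formation quantified by LC/MS/MS after 30 min at 37 °C with NADP+ regenerating system, compared against solvent control without test sample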
Sequence of human liver microsomal cytochrome P450 2E1 (CYP2E1) (P05181 whole entry): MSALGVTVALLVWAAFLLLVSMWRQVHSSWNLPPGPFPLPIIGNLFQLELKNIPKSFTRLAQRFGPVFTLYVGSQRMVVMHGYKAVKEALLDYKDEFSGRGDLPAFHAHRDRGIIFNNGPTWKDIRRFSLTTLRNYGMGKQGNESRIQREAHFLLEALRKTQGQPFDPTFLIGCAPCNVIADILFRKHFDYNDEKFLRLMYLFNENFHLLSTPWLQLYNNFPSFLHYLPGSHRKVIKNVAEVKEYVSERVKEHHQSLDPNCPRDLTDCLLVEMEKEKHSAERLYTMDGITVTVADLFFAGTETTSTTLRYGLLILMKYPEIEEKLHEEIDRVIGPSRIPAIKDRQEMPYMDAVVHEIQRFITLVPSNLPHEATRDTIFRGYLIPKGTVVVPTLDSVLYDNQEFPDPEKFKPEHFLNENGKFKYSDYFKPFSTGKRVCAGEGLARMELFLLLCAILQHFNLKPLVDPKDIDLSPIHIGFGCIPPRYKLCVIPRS
Method: (§3) Microsomes prepared from human liver were used to extract cytochrome P450 2E1 (CYP2E1) and CYP2E1 inhibitors were screened from 39 Chinese medicine guiding drugs and 10 excipients. Chlorzoxazone hydroxylation is a reaction catalyzed primarily by CYP2E1 in liver. The extracted human liver microsomal cytochrome P450 2E1 (CYP2E1) was mixed with its substrate, Chlorzoxazone, and test sample was then added Inhibition of CYP2E1 activity was calculated by measuring CYP2E1 standard metabolite, 6-OH-CZX (6-Hydroxy-Chlorzoxazone), and compared with control 6-OH-CZX.
(§4) After incubation, 16 mM Chlorzoxazone and test samples were added to experimental groups; methanol:sterilized water at 1:1 ratio was added to control groups and DDTC was added to positive control groups,
(§5) Finally, cofactor 1 mM NADP^+, 10 mM G6P and 2 IU G6PD were added and reaction mixtures were transferred to pre-incubation 37° C. water bath for 1 mM and activity was measured after 30 min of reaction
(§6) At the end of reaction, 500 μl acetonitrile was added to stop the reaction followed by 5 g/mL 4-hydroxy-tobutamide after 1 mM incubation. The mixture was then centrifuged and 20 L of supernatant was diluted ten times with methanol/sterilized water and 5 L was used for LC/MS/MS analysis. […] The inhibition of CYP2E1 was then calculated by the following equation:

amidase = assay: Mouse liver microsomal amidase, isoniazid to isonicotinic acid; format: biochemical
Text: Mouse liver microsomes were used as the source of amidase, and isoniazid was used as the amidase metabolism drugs. quantitative isoniazid was catalyzed into metabolites isonicotinic acid (INA) by amidase, and was used as the index for measurement of the amidase activity for establishment of the platform for screening in vitro amidase activity inhibitors. The HPLC system includes a Shimadzu the LC-LOAD pump, 1 Shimadzu system control and a Shimadzu autosampler (Shimadzu Scientific Instrument, Japan). A C18 column (particle size 5 μm, inner diameter of 50×4.6 mm, 25 cm) containing 70% methanol and 30% ammonium formate (50 mM, pH=2.5) of the mobile phase for HPLC separation, and the experimental steps are outlined as follows:
(2) An aliquot of 150 μL mouse liver microsomal solution was added to 100 μL isoniazid solution in 35 μL 67 mM potassium phosphate buffer solution ([…], pH=7) with a final concentration at 3 mM, and then mixed thoroughly with 15 μL amidase inhibitor (deionized water was added in the control group). (3) Incubation at 37° C. water bath for 30 minutes. (4) An aliquot of 300 μL acetonitrile (ACN) was added and mixed thoroughly, and incubated for 6 minutes. (5) An aliquot of 30 μL perchloric acid was then mixed and incubated for 6 minutes. (6) The mixture was centrifuged at 13000 g for 6 minutes. (7) After centrifugation, 100 μL of the supernatant was injected into HPLC. (8) Methanol ammonium formate (50 mM, pH=2.5)=70:30 (V/V) was selected as the mobile phase, and the flow rate was controlled at […] and detected at 270 nm UV. […] The amidase inhibition % was then calculated using the following formula: […]

[2] = biological target: cytochrome P450 2E1 (CYP2E1) (Homo sapiens, UniProt P05181); assay: CYP2E1 High Throughput Inhibitor Screening Kit, cDNA synthesized microsomal CYP2E1 (MFC to HFC); conditions: for Minimum Effective Dose: Table 3, minimum tested concentration (mg/L) × volume of human liver and intestine (3L)
Sequence of cytochrome P450 2E1 (CYP2E1) (P05181 whole entry): as above
Text: CYP2E1 High Throughput Inhibitor Screening Kit (BD Bioscience, USA) was used to screen the cytochrome P450 (CYP2E1) inhibitors from 22 Chinese medicine guiding drugs and 10 excipients and microsomal cytochrome P450 (CYP2E1) was synthesized from cDNA (BD Bioscience, USA). The principle of the screening kit is to measure the percentage of CYP2E inhibition, after adding the test sample to substrate MFC (7-Methoxy-4-trifluoromethyl coumarin) and cytochrome P450 (CYP2E1), by measuring the synthesis of standard CYP2E1 metabolite (HFC, 7-Hydroxy-4-trifluoromethyl coumarin) and use control HFC as baseline.
a. 149 μl NADPH-Cofactor Mix and 1 μl 20 mM DDTC were added to the #1 well in a 96-well plate and mixed thoroughly,
b. Add 100 μl Cofactor/acetonitrile mix to #2 to #12 wells, and well #1 to #8 are positive control. Well #9 and 10 are control and well #11 and #12 are blank,
c. […] Preparation of Experimental Groups: a. […] Transfer 50 μl from well #1 and #2 and added to well #3 and mixed thoroughly (triplicate for each sample), 3. Initiation and Termination of the Reaction: a. The 96-well plate was incubated at 37° C. for […], b. 100 μl of Enzyme/Substrate Mix was added to every well and mixed thoroughly except the blank wells, c. The 96-well plate was incubated at 37° C. for 40 min, d. 75 μl Stop Solution was added to every well and mixed thoroughly, e. Immediately add 100 μl Enzyme/Substrate Mix to blank wells and mixed thoroughly, f. Measure with a Fluoroskan Ascent FL (Thermo Electron Corporation, Finland) with excitation at 405 nm and emission at 538 nm, 4. The fluorescence was transverse into CYP 2E1 metabolite standard (HFC) concentration (pmol) and the percentage (%) of CYP 2E1 inhibition was calculated using control as baseline by following equation: […]

[3] = system: Male SD (Sprague-Dawley) rats; assay: Rat study of INH combined with DSF and/or BNPP (AST, ALT, histology, 8-iso-PGF2α, GSP, GEC); format: in vivo
Method: (§1) The body weight of the rats was monitored throughout the experiment. Rats were anesthetized with sodium pentobarbital intraperitoneally (i.p.) at the dose of 50 mg/kg and Galactose was injected intravenously through a polyethylene catheter positioned in internal jugular vein. The catheter was positioned by cut-down technique and its end was embedded under the skin behind the neck. After the surgery, the rats were fasted overnight during the recovery period (about 16 hours) with unrestricted water access.
Animals were randomized into one of five groups, each involving three treatments. The first treatment involved either a BNPP injection of 25 mg/kg or a BNPP vehicle (VEH1) injection (saline). […] The second treatment involved injections of either 100 mg/kg DSF or DSF vehicle (VEH2, corn oil). DSF was dissolved in corn oil and i.p. injected at a volume of […]. The third treatment involved injections of INH (25 mg/kg) or INH vehicle (VEH3, saline). INH was dissolved in saline (0.9% NaCl), and i.p. injected at a volume of […]. The first treatment (BNPP or VEH1) was administered 30 minutes before the third treatment (INH or VEH3), and the second treatment (DSF or VEH2) was administered 15 minutes before the third treatment (INH or VEH3).
Galactose elimination capacity (GEC) test was performed 16 hours […] at the end of 21 days-treatment to measure the liver function.
After 21 days treatment, the rats were sacrificed with ether and blood samples collected in test tubes containing EDTA by dorsal aorta extract. The blood samples were centrifuged at 13,000 g for 15 min at 4° C. and plasma was aliquot into eppendorf tubes and stored at −80° C.
(§2) After the rats were sacrificed, the livers were subjected to histology analysis.
All isomers of PGF2α were dissolved or diluted in adequate amount of ethanol and after aliquot, stored at −70° C. As an internal standard, 10 ng of 8-iso-PGF2α-d4 was mixed with 0.5 ml of plasma in a glass tube and was then purified by a C18 Solid-Phase Extraction column (J. T. Baker, MA, USA). Sample eluants were evaporated under a stream of nitrogen and re-dissolved in 50 μl acetonitrile:water (15:85 v/v) solution followed by vortex for 30 seconds and 10 μl extract was further analyzed with a LC/MS/MS system.
Shimadzu system control and one Shimadzu autosampler (Shimadzu, Japan). HPLC purification of the extract by C18 column (mesh size 5-μm, diameter 50×2.1 mm) using 2 mM ammonium acetate/acetonitrile, ACN gradient as mobile phase (t=0 mM, 15% ACN; t=6 mM, 70% ACN; t=7 mM, 90% ACN; t=8 mM, 90% ACN; t=8.5 min, 15% ACN). […] Such HPLC system was connected to a triple stage quadrupole mass spectrometer (API3000, Applied Biosystem, Foster City, Calif., USA) and is equipped with a Turbo Ion Spray ionization source, and uses negative electrospray for ionization. Such spectrophotometer uses diffusion of standard solution of 200 ng/ml 8-iso-PGF2α or 8-iso-PGF2α-d4 to optimize the mode for multiple reaction monitoring (MRM).
All rats were subjected to GSP and GEC tests.

[4] = system: Male SD (Sprague-Dawley) rats; assay: Rat study of PZA combined with BNPP (AST, ALT, histology, GSP); format: in vivo
Method: as §1, with “galactose” for “Galactose”
Animals were randomized into one of five groups, each involving three treatments. The first treatment involved either a BNPP injection of 50 mg/kg or a BNPP vehicle (VEH1) injection (saline). […] The second treatment involved injections of either 500 mg/kg PZA or PZA vehicle (VEH2, saline). PZA was dissolved in saline and i.p. injected at a volume of […]. The first treatment (BNPP or VEH1) was administered 15 minutes before the […].
2. PZA group (PZA, n=10): continuously injections of PZA, VEH1 and VEH2 intraperitoneally once every day for 49 days;
3. BNPP-PZA group (BNPP-PZA, n=10): continuously injections of BNPP, PZA and VEH2 intraperitoneally once every day for 49 days;
as §2
All rats were subjected to GSP tests.

CYP2E1 = CYP2E1 (Homo sapiens, UniProt P05181); assay: Human liver microsomal CYP2E1, chlorzoxazone 6-hydroxylation; conditions: human, human liver microsomes, pH 7.4, probe Chlorzoxazone;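 note: chlorzoxazone added as substrate, 6-hydroxychlorzoxazone formation quantified by LC/MS/MS after 30 min at 37 °C with NADP+ regenerating system, compared against solvent control without test sample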
Sequence of CYP2E1 (P05181 whole entry): as above
Method: as §3, §4, §5, §6

129/sv mice = assay: Mouse study of INH/RIF with oral Kaempferol, Mannitol, Saccharin, Sucralose, Dicalcium phosphate or Crospovidone; format: in vivo; conditions: 3 weeks, in words
Text: Animals were randomized into one of thirteen groups, each involving three treatments. […].
All mice were subjected to GSP test.

[5] = Table 6, minimum tested concentration (mg/L) × volume of human liver and intestine (3 L)
[6] = i.p. daily 49 days, PZA 500 mg/kg, BNPP 50 mg/kg

Compound	Minimum Effective Dose [1, 5] [mg]	Amidase inhibition (amidase; 1 uM) [%]	Amidase inhibition (amidase; 10 uM) [%]	Amidase inhibition (amidase; 100 uM) [%]	Minimum Effective Dose [2] [mg]	other results
CCCCC[C@H](O)CC(=O)CCc1ccc(O)c(OC)c1 [6-Gingerol]	16	−8.2 ± 9.0	0.5 ± 0.7	22.6 ± 3.4	16	–
Oc1cc(O)c2c(c1)O[C@H](c1ccc(O)c(O)c1)[C@H](O)C2 [(−)-Epicatechin]	–	−25.8 ± 6.2	−4.8 ± 10.5	3.6 ± 4.3	16	Inhibition of CYP 2E1 ([2]; 16.5 μM): 18.27%; Inhibition of CYP 2E1 ([2]; 66 μM): 2.57%
COc1c(O)cc2oc(Oc3ccc(O)cc3)cc(=O)c2c1O [Capillarisin]	17	−4.1 ± 8.1	18.2 ± 3.7	45.7 ± 4.2	17	Inhibition of CYP 2E1 ([1]; 16.5 μM): 32.89 ± 2.46%; Inhibition of CYP 2E1 ([1]; 33 μM): 46.22 ± 2.65%; Inhibition of CYP 2E1 ([1]; 66 μM): 57.31 ± 1.31%; Inhibition of CYP 2E1 ([2]; 16.5 μM): 49.05%; Inhibition of CYP 2E1 ([2]; 66 μM): 76.12%
COc1ccc([C@@H]2CC(=O)c3c(O)cc(O)cc3O2)cc1O [Hesperetin]	17	−40.5 ± 24.8	5.4 ± 2.5	19.0 ± 3.6	33	–
NNC(=O)c1ccncc1 [INH, isoniazid]	–	–	–	–	–	GEC values ([3]; 21 days): 3.4±0.6 mg/min·kg; plasma ALT activities ([3]; i.p. once daily 21 days): 52±3 IU/L; plasma AST activities ([3]; i.p. once daily 21 days): 129±10 IU/L; plasma concentrations of 8-iso-PGF2α ([3]; i.p. once daily 21 days): 0.151 ± 0.026 ng/mL; liver histopathology ([3]; three weeks, H&E, EM, in words): showed hepatocellular damage
O=C1C[C@@H](c2ccc(O)cc2)Oc2cc(O)cc(O)c21 [Narigenin]	9	–	–	–	9	–
CC(Cc1ccc(O)c(O)c1)C(C)Cc1ccc(O)c(O)c1 (centres unmarked) [Nordihydroguaiaretic acid]	17	–	–	–	17	–
NC(=O)c1cnccn1 [PZA, pyrazinamide]	–	–	–	–	–	plasma ALT activities [4, 6]: 91±11 IU/L; plasma AST activities [4, 6]: 179±10 IU/L; liver histopathology ([4]; seven weeks, in words): showed hepatocellular damage
O=C(CCc1ccc(O)cc1)c1c(O)cc(O)cc1O [Phloretin]	15	16.5 ± 14.3	9.8 ± 5.4	29.9 ± 8.1	15	–
O=C(O)c1ccc(O)c(O)c1 [Protocatechuic acid]	–	11.5 ± 4.0	10.9 ± 2.0	15.7 ± 8.1	8	–
O=c1c(-c2ccc(O)cc2)coc2c([C@@H]3O[C@H](CO)[C@@H](O)[C@H](O)[C@H]3O)c(O)ccc12 [Puerarin]	–	40.9 ± 3.6	33.0 ± 3.3	17.9 ± 7.2	23	–
O=C1NS(=O)(=O)c2ccccc21 [Saccharin]	–	–	–	–	–	Minimum Effective Dose ([1]; Table 7): 10 mg; inhibition at 30 min, 16.5 µM (CYP2E1): 29.4 ± 2.7%; inhibition at 30 min, 33 µM (CYP2E1): 51.2 ± 0.9%; inhibition at 30 min, 66 µM (CYP2E1): 78.5 ± 2.1%; GSP values over treatment time (129/sv mice): remained constant
OC[C@H]1O[C@H](O[C@]2(CCl)O[C@H](CCl)[C@@H](O)[C@@H]2O)[C@H](O)[C@@H](O)[C@H]1Cl [Sucralose]	–	–	–	–	–	Minimum Effective Dose ([1]; Table 7): 22 mg; inhibition at 30 min, 16.5 µM (CYP2E1): 37.1 ± 2.8%; inhibition at 30 min, 33 µM (CYP2E1): 45.8 ± 4%; inhibition at 30 min, 66 µM (CYP2E1): 55.8 ± 2%; GSP values over treatment time (129/sv mice): remained constant
O=c1ccc2ccc(O)cc2o1 [Umbelliferone]	–	24.1 ± 11.6	−1.0 ± 13.2	33.5 ± 8.2	9	–
O=C(O)c1cc(O)c(O)c(O)c1 [gallic acid]	9	12.0 ± 5.5	20.0 ± 5.1	−20.2 ± 26.5	9	–
O=C(O)/C=C/c1ccccc1 [trans-Cinnamic acid]	–	−11.9 ± 2.3	−1.4 ± 0.6	12.6 ± 1.7	8	–
